What was measured:
[1] = tested on: TBEV Neudoerfl strain; assay type: cell-based, tick-borne encephalitis virus
[2] = tested on: TBEV Neudoerfl strain; test: microbe, parasite or virus in culture; assay type: cell-based, tick-borne encephalitis virus; details: for IC50: Tick-borne encephalitis virus, A549, 72 h, read-out: half-maximum inhibitory concentration (IC50), reduction of viral titer by 50%
[3] = tested on: TBEV Hypr strain; assay type: cell-based, tick-borne encephalitis virus
[4] = in vitro; details: human, cytotoxic concentration (CC50) required to reduce cell viability by 50%
[5] = tested on: TBEV Hypr strain; assay type: cell-based, tick-borne encephalitis virus; remark: listed apart in the source
[6] = tested on: TBEV E and prM proteins; assay type: cell-based, tick-borne encephalitis virus
[7] = tested on: A549 cells; details: human

SMILES	inhibition of TBEV infection, size and number of plaques [1]	CC50 [4] [µM]	cell viability after inhibitory treatment (protection from TBEV-induced CPE) [5] [%]	reduction of number of plaques vs DMSO-treated infected cells [1]	selectivity index (SI) CC50/IC50 [2]	IC50 [2] [µM]	also measured
CC(=O)O[C@H]1[C@H](C)O[C@H](OC[C@H]2O[C@@H](n3ccc(=O)[nH]c3=O)[C@@H]3OC(C)(C)O[C@@H]32)C[C@@H]1O[Si](C)(C)C(C)(C)C [Compound 1]	minor or no antiviral effect	74					effect on viral growth [2]: did not affect viral growth; effect on viral growth [3]: did not affect viral growth
CC(=O)O[C@H]1[C@H](C)O[C@H](OC[C@H]2O[C@@H](n3ccc(=O)n(C(=O)c4ccccc4)c3=O)[C@@H]3OC(C)(C)O[C@@H]32)C[C@@H]1O[Si](C)(C)C(C)(C)C [Compound 2]	nearly a complete inhibition of TBEV infection	141	~99	98%	26.6	5.3	plaque formation [1]: no plaques were detected; TBEV titer [2]: undetectable levels
CC1(C)OC2C(COC3CC(OCc4ccccc4)C(OCc4ccccc4)C(COCc4ccccc4)O3)OC(n3ccc(=O)[nH]c3=O)C2O1 (stereo not shown) [Compound 3]	minor or no antiviral effect	97					effect on viral growth [2]: did not affect viral growth; effect on viral growth [3]: did not affect viral growth
CC1(C)OC2C(COC3CC(OCc4ccccc4)C(OCc4ccccc4)C(COCc4ccccc4)O3)OC(n3ccc(=O)n(C(=O)c4ccccc4)c3=O)C2O1 (stereo not shown) [Compound 4]	nearly a complete inhibition of TBEV infection	119	~99	90%	85	1.4	plaque formation [1]: no plaques were detected; reduction of the viral titer vs infected mock-treated cells [2]: 10^4 fold; virus detection in supernatant [2]: no virus was detected; synthesis of E and prM proteins [6]: completely inhibited the synthesis of both proteins
CC1(C)OC2C(COC3CC(OCc4ccccc4)C(OCc4ccccc4)C(CO[Si](C)(C)C(C)(C)C)O3)OC(n3ccc(=O)[nH]c3=O)C2O1 (stereo not shown) [Compound 5]		79					
CC(=O)OCC1OC(OCC2OC(n3ccc(=O)[nH]c3=O)C3OC(C)(C)OC23)CC(OC(C)=O)C1OC(C)=O (stereo not shown) [Compound 6]		196					
CC(=O)OCC1OC(OCC2OC(n3ccc(=O)[nH]c3=O)C3OC(C)(C)OC23)CC(OC(C)=O)C1OC(C)=O (stereo not shown) [Compound 7]							CC50 [7]: 223 µM
CC(=O)OCC1OC(OCC2OC(n3ccc(=O)n(Cc4ccccc4)c3=O)C3OC(C)(C)OC23)CC(OC(C)=O)C1OC(C)=O (stereo not shown) [Compound 8]		225					
O=c1ccn(C2OC(COC3CC(O)C(O)C(CO)O3)C(O)C2O)c(=O)[nH]1 (stereo not shown) [Compound 9]		238					
CC1(C)OC2C(COC3CC(OCc4ccccc4)C(OCc4ccccc4)C(CO[Si](C)(C)C(C)(C)C)O3)OC(n3ccc(=O)n(C(=O)c4ccccc4)c3=O)C2O1 (stereo not shown) [Compound 10]	nearly a complete inhibition of TBEV infection	121	90	82–96%	18.6	6.5	
CC1(C)OC2C(COC3CC(OCc4ccccc4)C(OCc4ccccc4)C(CO)O3)OC(n3ccc(=O)n(C(=O)c4ccccc4)c3=O)C2O1 (stereo not shown) [Compound 11]	nearly a complete inhibition of TBEV infection	141	81	82–96%	13.8	10.2	

— publication PMC6471225 (Molecules, 2019)
